Data: patent US20100298141A1, “SUBSTITUTED PYRIDINE N-OXIDE HERBICIDES” (E. I. DU PONT DE NEMOURS AND COMPANY, priority 2007, published 2010)

Columns and labels:
[1] = tested on: velvetleaf; experiment: Test A pre-/postemergence greenhouse test; type: in vivo, Abutilon theophrasti; conditions: for Plant response rating, Velvetleaf: 0 to 100 scale where 0 is no effect and 100 is complete control; for Velvetleaf plant response rating: 0 to 100 scale
Summary of the method: (§1)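 Planting was into mixed loam soil and sand; preemergence treatment followed as a directed soil spray. Concurrently, emerged plants (one- to two-leaf, 2–10 cm) received postemergence applications of identically formulated compound (non-phytotoxic solvent, surfactant). After approximately ten days under greenhouse conditions, injury was judged by eye against untreated plants.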

[2] = tested on: redroot pigweed; experiment: Test A pre-/postemergence greenhouse test; type: in vivo, Amaranthus retroflexus; conditions: for Plant response rating, Pigweed: 0 to 100 scale where 0 is no effect and 100 is complete control; for Pigweed plant response rating: 0 to 100 scale
Summary of the method: as §1

[3] = tested on: barnyardgrass; experiment: Test A pre-/postemergence greenhouse test; type: in vivo, Echinochloa crus-galli; conditions: for Plant response rating, Barnyardgrass: 0 to 100 scale where 0 is no effect and 100 is complete control; for Barnyardgrass plant response rating: 0 to 100 scale
Summary of the method: as §1

[4] = tested on: duck salad; experiment: Test C flooded paddy test; type: in vivo, Heteranthera limosa; conditions: Flood
Summary of the method: (§2)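 Ratings were visual and made relative to untreated controls after 13 to 15 greenhouse days.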

[5] = tested on: umbrella sedge; experiment: Test C flooded paddy test; type: in vivo, Cyperus difformis; conditions: Flood
Summary of the method: as §2

[6] = tested on: barnyardgrass; experiment: Test C flooded paddy test; type: in vivo, Echinochloa crus-galli; conditions: Flood
Summary of the method: as §2

[7] = tested on: morningglory; experiment: Test A pre-/postemergence greenhouse test; type: in vivo, Ipomoea spp.; conditions: for Plant response rating, Morningglory: 0 to 100 scale where 0 is no effect and 100 is complete control; for Morningglory plant response rating: 0 to 100 scale
Summary of the method: as §1

[8] = tested on: rice; experiment: Test C flooded paddy test; type: in vivo, Oryza sativa; conditions: Flood
Summary of the method: as §2

[9] = tested on: crabgrass; experiment: Test A pre-/postemergence greenhouse test; type: in vivo, Digitaria sanguinalis; conditions: for Plant response rating, Crabgrass, Large: 0 to 100 scale where 0 is no effect and 100 is complete control; for Crabgrass, Large plant response rating: 0 to 100 scale
Summary of the method: as §1

[10] = tested on: corn; experiment: Test A pre-/postemergence greenhouse test; type: in vivo, Zea mays; conditions: for Plant response rating, Corn: 0 to 100 scale where 0 is no effect and 100 is complete control; for Corn plant response rating: 0 to 100 scale
Summary of the method: as §1

[11] = tested on: giant foxtail; experiment: Test A pre-/postemergence greenhouse test; type: in vivo, Setaria faberi; conditions: for Plant response rating, Foxtail, Giant: 0 to 100 scale where 0 is no effect and 100 is complete control; for Foxtail, Giant plant response rating: 0 to 100 scale
Summary of the method: as §1

[12] = tested on: wheat; experiment: Test A pre-/postemergence greenhouse test; type: in vivo, Triticum aestivum; conditions: for Plant response rating, Wheat: 0 to 100 scale where 0 is no effect and 100 is complete control; for Wheat plant response rating: 0 to 100 scale
Summary of the method: as §1

[13] = Postemergence, 500 g ai/ha, 0 is no effect, 100 is complete control
[14] = Preemergence, 125 g ai/ha, 0 no effect, 100 complete control
[15] = 31 g ai/ha, scale 0 to 100 (0 no effect, 100 complete control)
[16] = 62 g ai/ha, scale 0 to 100, 0 no effect, 100 complete control, 13 to 15 days
[17] = 125 g ai/ha, scale 0 to 100, 0 no effect, 100 complete control, 13 to 15 days
[18] = 250 g ai/ha, scale 0 to 100, 0 no effect, 100 complete control, 13 to 15 days

`CC(c1c(C(F)(F)F)nn(CC(F)(F)F)c1Cl)S(=O)(=O)c1ccc(Cl)c[n+]1[O-]` (stereo not drawn) [Compound 55] was tested, and the “Plant response rating, Velvetleaf” value ([1]; Postemergence, 125 g ai/ha) was 0, the “Velvetleaf plant response rating” value [1, 13] was 30 and the “Velvetleaf plant response rating” value [1, 14] was 0. The “Plant response rating, Velvetleaf” value ([1]; Preemergence, 500 g ai/ha) was 0, the “Plant response rating, Pigweed” value ([2]; Postemergence, 125 g ai/ha) was 0 and the “Pigweed plant response rating” value [2, 13] was 30. The “Pigweed plant response rating” value [2, 14] was 90, the “Plant response rating, Pigweed” value ([2]; Preemergence, 500 g ai/ha) was 100 and the “Plant response rating, Barnyardgrass” value ([3]; Postemergence, 125 g ai/ha) was 40. For the same compound, the “Barnyardgrass plant response rating” value [3, 13] was 80, the “Barnyardgrass plant response rating” value [3, 14] was 30 and the “Plant response rating, Barnyardgrass” value ([3]; Preemergence, 500 g ai/ha) was 100. For the same compound, the “Plant response rating, Ducksalad” value [4, 15] was 0, the “Plant response rating, Ducksalad” value [4, 16] was 40 and the “Plant response rating, Ducksalad” value [4, 17] was 60. For the same compound, the “Plant response rating, Ducksalad” value [4, 18] was 60, the “Plant response rating, Sedge, Umbrella” value [5, 15] was 0 and the “Plant response rating, Sedge, Umbrella” value [5, 17] was 65. For the same compound, the “Plant response rating, Sedge, Umbrella” value [5, 18] was 75, the “Plant response rating, Barnyardgrass” value [6, 15] was 0 and the “Plant response rating, Barnyardgrass” value [6, 16] was 0. The “Plant response rating, Barnyardgrass” value [6, 17] was 0, the “Plant response rating, Barnyardgrass” value [6, 18] was 0 and the “Plant response rating, Morningglory” value ([7]; Postemergence, 125 g ai/ha) was 0. For the same compound, the “Morningglory plant response rating” value [7, 13] was 50, the “Morningglory plant response rating” value [7, 14] was 0 and the “Plant response rating, Morningglory” value ([7]; Preemergence, 500 g ai/ha) was 50. The “Plant response rating, Rice” value [8, 15] was 0, the “Plant response rating, Rice” value [8, 16] was 0 and the “Plant response rating, Rice” value [8, 17] was 0. The “Plant response rating, Rice” value [8, 18] was 20, the “Plant response rating, Crabgrass, Large” value ([9]; Postemergence, 125 g ai/ha) was 50 and the “Crabgrass, Large plant response rating” value [9, 13] was 80. The “Crabgrass, Large plant response rating” value [9, 14] was 80, the “Plant response rating, Crabgrass, Large” value ([9]; Preemergence, 500 g ai/ha) was 90 and the “Plant response rating, Corn” value ([10]; Postemergence, 125 g ai/ha) was 0. For the same compound, the “Corn plant response rating” value [10, 13] was 0, the “Corn plant response rating” value [10, 14] was 0 and the “Plant response rating, Corn” value ([10]; Preemergence, 500 g ai/ha) was 0. For the same compound, the “Plant response rating, Foxtail, Giant” value ([11]; Postemergence, 125 g ai/ha) was 70, the “Foxtail, Giant plant response rating” value [11, 13] was 80 and the “Foxtail, Giant plant response rating” value [11, 14] was 60. The “Plant response rating, Foxtail, Giant” value ([11]; Preemergence, 500 g ai/ha) was 90, the “Plant response rating, Wheat” value ([12]; Postemergence, 125 g ai/ha) was 0 and the “Wheat plant response rating” value [12, 13] was 0. For the same compound, the “Wheat plant response rating” value [12, 14] was 0 and the “Plant response rating, Wheat” value ([12]; Preemergence, 500 g ai/ha) was 0.
`Cc1cc[n+]([O-])c(S(=O)(=O)C(Cl)c2c(C(F)(F)F)nn(CC(F)(F)F)c2Cl)c1` (stereo not drawn) [Compound 56] was tested, and the “Plant response rating, Velvetleaf” value ([1]; Postemergence, 125 g ai/ha) was 0, the “Velvetleaf plant response rating” value [1, 13] was 0 and the “Velvetleaf plant response rating” value [1, 14] was 0. The “Plant response rating, Velvetleaf” value ([1]; Preemergence, 500 g ai/ha) was 40, the “Plant response rating, Pigweed” value ([2]; Postemergence, 125 g ai/ha) was 0 and the “Pigweed plant response rating” value [2, 13] was 20. For the same compound, the “Plant response rating, Pigweed” value ([2]; Preemergence, 500 g ai/ha) was 100, the “Plant response rating, Barnyardgrass” value ([3]; Postemergence, 125 g ai/ha) was 0 and the “Barnyardgrass plant response rating” value [3, 13] was 50. The “Barnyardgrass plant response rating” value [3, 14] was 0, the “Plant response rating, Barnyardgrass” value ([3]; Preemergence, 500 g ai/ha) was 70 and the “Plant response rating, Ducksalad” value [4, 15] was 0. The “Plant response rating, Ducksalad” value [4, 16] was 40, the “Plant response rating, Ducksalad” value [4, 17] was 85 and the “Plant response rating, Ducksalad” value [4, 18] was 100. For the same compound, the “Plant response rating, Sedge, Umbrella” value [5, 15] was 0, the “Plant response rating, Sedge, Umbrella” value [5, 17] was 45 and the “Plant response rating, Sedge, Umbrella” value [5, 18] was 55. For the same compound, the “Plant response rating, Barnyardgrass” value [6, 15] was 0, the “Plant response rating, Barnyardgrass” value [6, 16] was 0 and the “Plant response rating, Barnyardgrass” value [6, 17] was 0. For the same compound, the “Plant response rating, Barnyardgrass” value [6, 18] was 20, the “Plant response rating, Morningglory” value ([7]; Postemergence, 125 g ai/ha) was 0 and the “Morningglory plant response rating” value [7, 13] was 10. For the same compound, the “Morningglory plant response rating” value [7, 14] was 0, the “Plant response rating, Morningglory” value ([7]; Preemergence, 500 g ai/ha) was 0 and the “Plant response rating, Rice” value [8, 15] was 0. The “Plant response rating, Rice” value [8, 16] was 0, the “Plant response rating, Rice” value [8, 17] was 0 and the “Plant response rating, Rice” value [8, 18] was 0. The “Plant response rating, Crabgrass, Large” value ([9]; Postemergence, 125 g ai/ha) was 0, the “Crabgrass, Large plant response rating” value [9, 13] was 50 and the “Crabgrass, Large plant response rating” value [9, 14] was 20. The “Plant response rating, Crabgrass, Large” value ([9]; Preemergence, 500 g ai/ha) was 80, the “Plant response rating, Corn” value ([10]; Postemergence, 125 g ai/ha) was 0 and the “Corn plant response rating” value [10, 13] was 0. The “Corn plant response rating” value [10, 14] was 0, the “Plant response rating, Corn” value ([10]; Preemergence, 500 g ai/ha) was 0 and the “Plant response rating, Foxtail, Giant” value ([11]; Postemergence, 125 g ai/ha) was 0. For the same compound, the “Foxtail, Giant plant response rating” value [11, 13] was 50, the “Foxtail, Giant plant response rating” value [11, 14] was 30 and the “Plant response rating, Foxtail, Giant” value ([11]; Preemergence, 500 g ai/ha) was 90. For the same compound, the “Plant response rating, Wheat” value ([12]; Postemergence, 125 g ai/ha) was 0, the “Wheat plant response rating” value [12, 13] was 0 and the “Wheat plant response rating” value [12, 14] was 0. The “Plant response rating, Wheat” value ([12]; Preemergence, 500 g ai/ha) was 0.
`Cn1nc(C(F)(F)F)c(C[S+]([O-])c2cc(Cl)cc[n+]2[O-])c1OC(F)F` (stereo not drawn) [Compound 57] was tested, and the “Plant response rating, Velvetleaf” value ([1]; Postemergence, 125 g ai/ha) was 30, the “Velvetleaf plant response rating” value [1, 13] was 70 and the “Velvetleaf plant response rating” value [1, 14] was 50. The “Plant response rating, Velvetleaf” value ([1]; Preemergence, 500 g ai/ha) was 70, the “Plant response rating, Pigweed” value ([2]; Postemergence, 125 g ai/ha) was 70 and the “Pigweed plant response rating” value [2, 13] was 100. For the same compound, the “Pigweed plant response rating” value [2, 14] was 70, the “Plant response rating, Pigweed” value ([2]; Preemergence, 500 g ai/ha) was 100 and the “Plant response rating, Barnyardgrass” value ([3]; Postemergence, 125 g ai/ha) was 30. The “Barnyardgrass plant response rating” value [3, 13] was 50, the “Barnyardgrass plant response rating” value [3, 14] was 60 and the “Plant response rating, Barnyardgrass” value ([3]; Preemergence, 500 g ai/ha) was 100. The “Plant response rating, Ducksalad” value [4, 16] was 40, the “Plant response rating, Ducksalad” value [4, 18] was 95 and the “Plant response rating, Sedge, Umbrella” value [5, 18] was 100. For the same compound, the “Plant response rating, Barnyardgrass” value [6, 16] was 15, the “Plant response rating, Barnyardgrass” value [6, 18] was 20 and the “Plant response rating, Morningglory” value ([7]; Postemergence, 125 g ai/ha) was 30. For the same compound, the “Morningglory plant response rating” value [7, 13] was 70, the “Morningglory plant response rating” value [7, 14] was 40 and the “Plant response rating, Morningglory” value ([7]; Preemergence, 500 g ai/ha) was 90. The “Plant response rating, Rice” value [8, 16] was 0, the “Plant response rating, Rice” value [8, 18] was 65 and the “Plant response rating, Crabgrass, Large” value ([9]; Postemergence, 125 g ai/ha) was 60. The “Crabgrass, Large plant response rating” value [9, 13] was 90, the “Crabgrass, Large plant response rating” value [9, 14] was 60 and the “Plant response rating, Crabgrass, Large” value ([9]; Preemergence, 500 g ai/ha) was 80. For the same compound, the “Plant response rating, Corn” value ([10]; Postemergence, 125 g ai/ha) was 0, the “Corn plant response rating” value [10, 13] was 60 and the “Corn plant response rating” value [10, 14] was 0. The “Plant response rating, Corn” value ([10]; Preemergence, 500 g ai/ha) was 0, the “Plant response rating, Foxtail, Giant” value ([11]; Postemergence, 125 g ai/ha) was 30 and the “Foxtail, Giant plant response rating” value [11, 13] was 60. The “Foxtail, Giant plant response rating” value [11, 14] was 30, the “Plant response rating, Foxtail, Giant” value ([11]; Preemergence, 500 g ai/ha) was 100 and the “Plant response rating, Wheat” value ([12]; Postemergence, 125 g ai/ha) was 50. The “Wheat plant response rating” value [12, 13] was 70, the “Wheat plant response rating” value [12, 14] was 20 and the “Plant response rating, Wheat” value ([12]; Preemergence, 500 g ai/ha) was 40.
